Test results taken from US11612604B2, “Methods of treating cancer with PLK4 inhibitors” (LUDWIG INSTITUTE FOR CANCER RESEARCH LTD, priority 2017, dated 2023).

What follows are compounds tested against T1, PLK4 (Homo sapiens, UniProt O00444) (assay: Activity (IC50) of the Table 1 compounds as PLK4 inhibitors). Conditions: Table 1, IC50 class.
T1 sequence (O00444 1-970): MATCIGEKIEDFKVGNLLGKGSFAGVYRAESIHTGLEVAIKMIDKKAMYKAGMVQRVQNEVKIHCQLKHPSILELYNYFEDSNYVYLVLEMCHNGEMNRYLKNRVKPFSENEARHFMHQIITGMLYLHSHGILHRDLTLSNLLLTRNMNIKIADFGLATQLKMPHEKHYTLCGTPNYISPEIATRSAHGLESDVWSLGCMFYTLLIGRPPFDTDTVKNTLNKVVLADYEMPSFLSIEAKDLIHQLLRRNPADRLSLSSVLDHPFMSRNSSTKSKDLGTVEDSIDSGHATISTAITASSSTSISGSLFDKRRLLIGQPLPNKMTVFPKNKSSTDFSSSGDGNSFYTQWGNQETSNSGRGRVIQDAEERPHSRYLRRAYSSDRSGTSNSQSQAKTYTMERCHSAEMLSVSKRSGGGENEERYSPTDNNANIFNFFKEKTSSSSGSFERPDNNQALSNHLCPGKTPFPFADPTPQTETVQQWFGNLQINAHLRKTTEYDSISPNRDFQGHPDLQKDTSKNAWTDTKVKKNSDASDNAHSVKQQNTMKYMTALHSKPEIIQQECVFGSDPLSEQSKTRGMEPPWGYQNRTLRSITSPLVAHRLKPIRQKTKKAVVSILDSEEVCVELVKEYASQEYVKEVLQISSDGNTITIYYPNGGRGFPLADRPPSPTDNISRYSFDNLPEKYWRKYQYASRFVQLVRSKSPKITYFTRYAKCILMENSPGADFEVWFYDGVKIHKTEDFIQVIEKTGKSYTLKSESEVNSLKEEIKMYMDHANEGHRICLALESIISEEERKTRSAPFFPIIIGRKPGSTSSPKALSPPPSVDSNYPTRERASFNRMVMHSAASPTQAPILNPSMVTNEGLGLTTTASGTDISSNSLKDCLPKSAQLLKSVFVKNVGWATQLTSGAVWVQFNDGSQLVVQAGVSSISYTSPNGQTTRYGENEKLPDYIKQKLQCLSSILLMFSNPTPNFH
Format: biochemical

IC50 [nM] | SMILES
< 100 | CNC1CCN(c2nc(Sc3ccc(S(=O)(=O)C(C)(C)c4cccc([N+](=O)[O-])c4F)cc3F)nc(Nc3cc(C)[nH]n3)c2OC)CC1
< 100 | COc1c(Nc2cc(C)[nH]n2)nc(Sc2ccc(S(=O)(=O)C(C)(C)c3cccs3)cc2)nc1N1CCN(CCN(C)C)CC1
< 100 | COc1c(Nc2cc(C)[nH]n2)nc(Sc2ccc(S(=O)(=O)C(C)(C)C3CC3)cc2)nc1N1CCN(CCN(C)C)CC1
< 100 | COc1c(Nc2cc(C)[nH]n2)nc(Sc2ccc(S(=O)(=O)Cc3cccc([N+](=O)[O-])c3F)cc2F)nc1N1CCNCC1
< 100 | COc1c(Nc2cc(C)[nH]n2)nc(Sc2ccc(S(=O)(=O)C(C)(C)c3cccc([N+](=O)[O-])c3)cc2F)nc1N1CCC(CCNC(C)C(F)(F)F)CC1 (stereo not shown)
< 100 | COc1c(Nc2cc(C)[nH]n2)nc(Sc2ccc(S(=O)(=O)C(C)(C)c3nccs3)cc2)nc1N1CCN(CCN(C)C)CC1
< 100 | COc1c(Nc2cc(C)[nH]n2)nc(Sc2ccc(S(=O)(=O)Cc3ccccc3)cc2)nc1N1CCN(Cc2ccncc2)CC1
< 100 | COc1c(Nc2cc(C)[nH]n2)nc(Sc2ccc(S(=O)(=O)Cc3cccc(C#N)c3)cc2)nc1N1CCN(CCN(C)C)CC1
< 100 | COc1ccccc1CS(=O)(=O)c1ccc(Sc2nc(Nc3cc(C)[nH]n3)c(OC)c(N3CCN(CCN(C)C)CC3)n2)cc1
< 100 | COc1c(Nc2cc(C)[nH]n2)nc(Sc2ccc(S(=O)(=O)Cc3cccc(C)c3)cc2)nc1N1CCN(CCN(C)C)CC1
< 100 | COc1cccc(CS(=O)(=O)c2ccc(Sc3nc(Nc4cc(C)[nH]n4)c(OC)c(N4CCN(CCN(C)C)CC4)n3)cc2)c1
< 100 | COc1c(Nc2cc(C)[nH]n2)nc(Sc2ccc(NC(C)=O)cc2)nc1N1CCN(CCN2CCCCC2)CC1
< 100 | COc1c(Nc2cc(C)[nH]n2)nc(Sc2ccc(S(=O)(=O)Cc3ccccc3F)cc2)nc1N1CCOCC1
< 100 | COc1c(Nc2cc(C)[nH]n2)nc(Sc2ccc(S(=O)(=O)Cc3ccccc3[N+](=O)[O-])cc2)nc1N1CCN(CCN(C)C)CC1
< 100 | COc1c(Nc2cc(C)[nH]n2)nc(Sc2ccc(S(=O)(=O)Cc3cccc(C(F)(F)F)c3)cc2)nc1N1CCN(CCN(C)C)CC1
< 100 | COc1c(Nc2cc(C)[nH]n2)nc(Sc2ccc(S(=O)(=O)Cc3cccc(F)c3F)cc2)nc1N1CCN(CCN(C)C)CC1
< 100 | COc1c(Nc2cc(C)[nH]n2)nc(Sc2ccc(S(=O)(=O)Cc3cccc([N+](=O)[O-])c3F)cc2F)nc1N1CCCCC1 [drawing 376]

The next lines start with the compound.

SMILES | IC50 [nM]
COCCN1CCN(c2nc(Sc3ccc(NC(=O)C4CC4)cc3)nc(Nc3cc(C)[nH]n3)c2OC)CC1 | < 100
COc1c(Nc2cc(C)[nH]n2)nc(Sc2ccc(NC(=O)C3CC3)cc2)nc1N1CCN(CCN(C)C)CC1 | < 100
Cc1cc(Nc2nc(Sc3ccc(NC(=O)C4CC4)cc3)nc(N(C)C(C)C)c2C)n[nH]1 | < 100
COCCNc1nc(Sc2ccc(NC(=O)C3CC3)cc2)nc(Nc2cc(C)[nH]n2)c1C | < 100
Cc1cc(Nc2nc(Sc3ccc(NC(=O)C4CC4)cc3)nc(N3CCCCC3)c2C)n[nH]1 | < 100
COc1c(Nc2cc(C)[nH]n2)nc(Sc2ccc(S(=O)(=O)C(C)(C)c3cccnc3)cc2)nc1N1CCN(CCN(C)C)CC1 | < 100
COc1c(Nc2cc(C)[nH]n2)nc(Sc2ccc(S(=O)(=O)C(C)(C)c3ccccn3)cc2)nc1N1CCN(CCN(C)C)CC1 | < 100
COc1c(Nc2cc(C)[nH]n2)nc(Sc2ccc(S(=O)(=O)C(C)(C)c3cnccn3)cc2)nc1N1CCN(CCN(C)C)CC1 | < 100
COc1c(Nc2cc(C)[nH]n2)nc(Sc2ccc(S(=O)(=O)C(C)(C)c3ccncn3)cc2)nc1N1CCN(CCN(C)C)CC1 | < 100
CCOc1c(Nc2cc(C)[nH]n2)nc(Sc2ccc(NC(=O)C3CC3)cc2)nc1N1CCC(O)CC1 | < 100
COc1c(Nc2cc(C)[nH]n2)nc(Sc2ccc(NC(C)=O)cc2)nc1N1CCC(O)CC1C (stereo not shown) | < 100
COc1c(Nc2cc(C)[nH]n2)nc(Sc2ccc(NC(C)=O)cc2)nc1N1CCN(CCN2CCOCC2)CC1 | < 100
CC(=O)Nc1ccc(Sc2nc(Nc3cc(C)[nH]n3)c(C)c(N3CCN(CCN4CCCCC4)CC3)n2)cc1 | < 100
CC(=O)Nc1ccc(Sc2nc(Nc3cc(C)[nH]n3)c(C)c(N3CCC(OCCN(C)C)CC3)n2)cc1 | < 100
CC(=O)Nc1ccc(Sc2nc(Nc3cc(C)[nH]n3)c(C)c(N3CCOC[C@@H]3C)n2)cc1 | < 100
COc1c(Nc2cc(C)[nH]n2)nc(Sc2ccc(NC(C)=O)cc2)nc1N1CCN(CCCN(C)C)CC1 | < 100

SMILES | IC50 [nM]
COc1c(Nc2cc(C)[nH]n2)nc(Sc2ccc(NC(C)=O)cc2)nc1N1CCC(O)C1 (stereo not shown) | < 100
CSc1nc(Nc2cc(C)[nH]n2)c(C)c(N2CCN(CCN(C)C)CC2)n1 | < 100
COc1c(Nc2cc(C)[nH]n2)nc(Sc2ccc(NC(=O)C(F)(F)F)cc2)nc1N1CCN(CCN(C)C)CC1 | < 100
CNC(=O)Nc1ccc(Sc2nc(Nc3cc(C)[nH]n3)c(OC)c(N3CCN(CCN(C)C)CC3)n2)cc1 | < 100
CC(=O)Nc1ccc(Sc2nc(Nc3cc(C)[nH]n3)c(C)c(N3CCOC[C@H]3C)n2)cc1 | < 100
COc1c(Nc2cc(C)[nH]n2)nc(Sc2ccc(NC(C)=O)cc2)nc1N1CCN(CCNC(C)=O)CC1 | < 100
CNCCN1CCN(c2nc(Sc3ccc(NC(C)=O)cc3)nc(Nc3cc(C)[nH]n3)c2OC)CC1 | < 100
COc1c(Nc2cc(C)[nH]n2)nc(Sc2ccc(NC(C)=O)cc2)nc1N1CCOC[C@@H]1C | < 100
COc1c(Nc2cc(C)[nH]n2)nc(Sc2ccc(NC(C)=O)cc2)nc1N1CCOC[C@H]1C | < 100
COc1c(Nc2cc(C)[nH]n2)nc(Sc2ccc(NC(N)=O)cc2)nc1N1CCN(CCN(C)C)CC1 | < 100
CC(=O)Nc1ccc(Sc2nc(Cc3cc(C)[nH]n3)c(C)c(NC3CCN(C)CC3)n2)cc1 | < 100
CC(=O)Nc1ccc(Sc2nc(Nc3cc(C)[nH]n3)c(C)c(NC3CCNCC3)n2)cc1 | < 100
COc1c(Nc2cc(C)[nH]n2)nc(Sc2ccc(NC(C)=O)cc2)nc1N1CCN(CC(=O)N(C)C)CC1 | < 100
COc1c(Nc2cc(C)[nH]n2)nc(Sc2ccc(NC(C)=O)cc2)nc1NC1CCN(C)CC1 | < 100
COc1c(Nc2cc(C)[nH]n2)nc(Sc2ccc(NC(C)=O)cc2)nc1N1CCC(C(=O)N(C)C)CC1 | < 100

Each compound was assayed on caspase-3/7 activity in 'Sensitive' neuroblastoma and 'Not Sensitive' (RPE1, BT-12, BT-16) cell lines (assay: Caspase activation assay). Conditions: 500 nM centrinone B, four cell cycle durations, compared with centrinone.
Format: cell-based

SMILES | caspase activity
COc1c(Nc2cc(C)[nH]n2)nc(Sc2ccc(S(=O)(=O)Cc3cccc([N+](=O)[O-])c3F)cc2F)nc1N1CCCCC1 [centrinone B] | Comparable levels of caspase activity
